Here are results for 1 compound from patent US20180140572A1, “COMPOSITIONS COMPRISING A CANCER STEMNESS INHIBITOR AND AN IMMUNOTHERAPEUTIC AGENT FOR USE IN TREATING CANCER” (Boston Biomedical, Inc., priority 2015, published 2018).

Assay [1] concerns NANOG, CD44, and CD133. Description: Stemness marker expression in CT26 tumors (immunofluorescence). It is filed as in vivo, mouse. The settings on record: basal and anti-PD-1 antibody-induced. The method, then: (§1) At the end of treatment, tumors were harvested from euthanized mice. Part of the dissected tumors were fixed overnight in 3.7% or 10% neutral buffered formaldehyde at 4° C., and then paraffin embedded, cut to 4-5 micron sections, and affixed onto positively charged slides. After baking and deparaffinization, the slides with tumor or control tissues were incubated in a 10 mM sodium citrate solution pH=6.0 for antigen retrieval at 98° C. Afterwards, slides were probed with primary antibodies against P-STAT3 (Tyr705) (rabbit, Cell Signaling, 1:100), β-CATENIN (mouse, Santa Cruz, 1:400), IL-6 (mouse, Novus Biol., 1:100), PD-L1 (rabbit, Cell Signaling, 1:100), PCNA (mouse, Santa Cruz, 1:5000), CD8a (rabbit, Santa Cruz, 1:30), CD44 (rat, BioLegend, 1:50), CD44 (mouse, Cell Signaling, 1:100), CD133 (mouse, Miltenyi, 1:100), IDO1 (mouse, Millipore 1:100), or/and CD3 (rabbit, Abcam, 1:100) at 4° C. overnight, and then AlexaFluor fluorescent dye-conjugated secondary antibodies (Invitrogen, 1:300 or 1:500) at room temperature for one hour. After mounting in ProLong mounting medium containing DAPI (Invitrogen), the slides were examined on a Zeiss Axio Imager M2 upright fluorescence microscope with a 20× objective and analyzed with Zen software.

Assay [2] deals with IL-6. The assay can be described thus: IL-6 level in colorectal cancer xenograft model (SW480). It is filed as in vivo, mouse. The settings on record: SW480 xenograft, 0, 1, 2, 4, 8, or 24 hours after treatment. The method, then: as §1
In assay [3] the test system is CT26 colon tumor. The assay can be described thus: CT26 syngeneic murine colon carcinoma model, tumor volume. The note with it: BBI608 100 mg/kg po qd. It is filed as in vivo, BALB/c mouse. From the text:
All BALB/c mice (Taconic, Hudson, N.Y., USA) were housed in Association for Assessment and Accreditation of Laboratory Animal Care approved facilities in static microisolator cages. Murine MSS-status colon carcinoma CT26 cells (ATCC CRL-2639) and murine breast carcinoma cells 4T1 (ATCC CRL-2539) were purchased from American Type Culture Collection (ATCC, Manassas, Va., USA), and grown in RPMI-1640 medium (ATCC) supplemented with 10% heat-inactivated fetal calf serum. After harvesting during exponential growth, tumors were initiated by subcutaneously implanting 3×10^5 CT26 tumor cells into the right dorsal flank of each 8-12 week old female BALB/c mouse. […] Body weight and clinical signs were monitored throughout the course of the treatment in accordance with the Institutional Animal Care and Use Committee approved protocols. Drug efficacy was analyzed by measuring tumor volume in mm^3 calculated by multiplying 0.5×width^2×length. […]

Assay [4] has as its system IDO1. The assay can be described thus: IDO1 expression in colorectal cancer xenograft model (SW480). It is filed as in vivo, mouse. The settings on record: SW480 xenograft, 0, 1, 2, 4, 8, and 24 hours. The method, then: FIG. 13A and FIG. 13B show an exemplary reduction in IDO1 expression at 0, 1, 2, 4, 8, and 24 hours after treatment of SW480 xenograft colorectal cancer cells (FIG. 13A) and SKOV3 xenograft ovarian cancer cells (FIG. 13B) with an exemplary cancer sternness inhibitor, e.g., BBI608, according to certain embodiments of the present disclosure.
At the end of treatment, tumors were harvested from euthanized mice. Part of the dissected tumors were fixed overnight in 3.7% or 10% neutral buffered formaldehyde at 4° C., and then paraffin embedded, cut to 4-5 micron sections, and affixed onto positively charged slides. After baking and deparaffinization, the slides with tumor or control tissues were incubated in a 10 mM sodium citrate solution pH=6.0 for antigen retrieval at 98° C. […] After mounting in ProLong mounting medium containing DAPI (Invitrogen), the slides were examined on a Zeiss Axio Imager M2 upright fluorescence microscope with a 20× objective and analyzed with Zen software.

The test system of assay [5] is B-cell proliferation. The assay can be described thus: B-cell proliferation in lymph node adjacent to xenograft B16F10 tumor (PCNA staining). It is filed as in vivo, mouse. From the text:
The tissues were stained with PCNA.

Turning to `CC(=O)c1cc2c(o1)C(=O)c1ccccc1C2=O` [BBI608, 2-acetylnaphtho[2,3-b]furan-4,9-dione], the “NANOG, CD44, and CD133 expression” value in assay [1] is listed as “reduced”. In assay [2], the IL-6 level entry was “reduced IL-6 level in a time-dependent manner”. Further, the tumor growth inhibition in assay [3] (by the end of treatment (11 days)) is 76%. Also, the “anti-tumor activity (tumor volume course)” value in assay [3] (anti-PD-1 antibody 10 mg/kg iv q4d, 11 days) is “lasting anti-tumor activity”. For the same compound, the IDO1 expression level entry in assay [4] is “reduced IDO1 expression level in a time-dependent manner”. For the same compound, the “B-cell proliferation in lymph node adjacent to tumor” value in assay [5] is listed as “multiple centers of B-cell proliferation”.
